According to ChEMBL document CHEMBL6127154, “Pursuing Polypharmacology: Benzothiopyranoindoles as G-Quadruplex Stabilizers and Topoisomerase I Inhibitors for Effective Anticancer Strategies” (ACS Med Chem Lett, 2024):
Values belong to the molecule of their own block, whether it stands above or below them. The source made the active and inactive calls. The rule behind the calls is not given here.

How the values were obtained:
HCT-116 [1] = assay: Induction of DNA damage in human HCT-116 cells assessed as increase in 53BP1 foci positive cells incubated for 24 hrs by immunofluorescence staining based analysis; type: functional, cell-based
K562 = assay: Antiproliferative activity against human K562 cells assessed as growth inhibition incubated for 48 hrs by SRB assay; type: functional
KM12 = assay: Antiproliferative activity against human KM12 cells assessed as growth inhibition incubated for 48 hrs by SRB assay; type: functional
NCI-H226 = assay: Antiproliferative activity against human NCI-H226 cells assessed as growth inhibition incubated for 48 hrs by SRB assay; type: functional
Quadruplex DNA [2] = assay: Stabilization of human telomeric 23 hybrid G4 quadruplex DNA incubated for 10 mins by circular dichroism spectroscopic analysis; type: nucleic-acid assay
MDA-MB-435 = assay: Antiproliferative activity against human MDA-MB-435 cells assessed as growth inhibition incubated for 48 hrs by SRB assay; type: functional
SK-MEL-28 = assay: Antiproliferative activity against human SK-MEL-28 cells assessed as growth inhibition incubated for 48 hrs by SRB assay; type: functional
UO-31 = assay: Antiproliferative activity against human UO-31 cells assessed as growth inhibition incubated for 48 hrs by SRB assay; type: functional
NCI/ADR-RES = assay: Antiproliferative activity against human NCI/ADR-RES cells assessed as growth inhibition incubated for 48 hrs by SRB assay; type: functional
Homo sapiens = species on record: Homo sapiens; assay: Inhibition of human Topoisomerase II assessed as relaxation of supercoiled plasmid pBR322 DNA at 2.5 uM incubated for 1 hr by ethidium bromide staining based agarose gel electrophoresis
BT-549 = assay: Antiproliferative activity against human BT-549 cells assessed as growth inhibition incubated for 48 hrs by SRB assay; type: functional
Quadruplex DNA [3] = assay: Thermal stabilization of human Tel23-hy G4 quadruplex DNA assessed as change in melting temperature (deltaT1/2) incubated for 10 mins by circular dichroism spectroscopic analysis (reference value: 48 +/- 0.1 degreeC); type: nucleic-acid assay
EKVX = assay: Antiproliferative activity against human EKVX cells assessed as growth inhibition incubated for 48 hrs by SRB assay; type: functional
OVCAR-8 = assay: Antiproliferative activity against human OVCAR-8 cells assessed as growth inhibition incubated for 48 hrs by SRB assay; type: functional
NCI-H23 = assay: Antiproliferative activity against human NCI-H23 cells assessed as growth inhibition incubated for 48 hrs by SRB assay; type: functional
CAKI-1 = assay: Antiproliferative activity against human CAKI-1 cells assessed as growth inhibition incubated for 48 hrs by SRB assay; type: functional
786-0 = assay: Antiproliferative activity against human 786-0 cells assessed as growth inhibition incubated for 48 hrs by SRB assay; type: functional
HCT-116 [4] = assay: Antiproliferative activity against human HCT-116 cells assessed as growth inhibition incubated for 48 hrs by SRB assay; type: functional
PC-3 = assay: Antiproliferative activity against human PC-3 cells assessed as growth inhibition incubated for 48 hrs by SRB assay; type: functional
IGROV-1 = assay: Antiproliferative activity against human IGROV-1 cells assessed as growth inhibition incubated for 48 hrs by SRB assay; type: functional
Quadruplex DNA [5] = assay: Thermal stabilization of human c-Myc G4 quadruplex DNA assessed as change in melting temperature (deltaT1/2) incubated for 10 mins by circular dichroism spectroscopic analysis (reference value: 70.5 +/- 0.1 degreeC); type: nucleic-acid assay
RPMI-8226 = assay: Antiproliferative activity against human RPMI-8226 cells assessed as growth inhibition incubated for 48 hrs by SRB assay; type: functional
HCC 2998 = assay: Antiproliferative activity against human HCC 2998 cells assessed as growth inhibition incubated for 48 hrs by SRB assay; type: functional
SK-OV-3 = assay: Antiproliferative activity against human SK-OV-3 cells assessed as growth inhibition incubated for 48 hrs by SRB assay; type: functional
HCT-116 [6] = assay: Induction of DNA damage in human HCT-116 cells assessed as increase in gammaH2AX level incubated for 24 hrs by immunofluorescence staining based analysis; type: functional, cell-based
MCF7 = assay: Antiproliferative activity against human MCF7 cells assessed as growth inhibition incubated for 48 hrs by SRB assay; type: functional
TK-10 = assay: Antiproliferative activity against human TK-10 cells assessed as growth inhibition incubated for 48 hrs by SRB assay; type: functional
CCRF-CEM = assay: Antiproliferative activity against human CCRF-CEM cells assessed as growth inhibition incubated for 48 hrs by SRB assay; type: functional
SF-539 = assay: Antiproliferative activity against human SF-539 cells assessed as growth inhibition incubated for 48 hrs by SRB assay; type: functional
OVCAR-3 = assay: Antiproliferative activity against human OVCAR-3 cells assessed as growth inhibition incubated for 48 hrs by SRB assay; type: functional
SF-295 = assay: Antiproliferative activity against human SF-295 cells assessed as growth inhibition incubated for 48 hrs by SRB assay; type: functional
A549 = assay: Antiproliferative activity against human A549 cells assessed as growth inhibition incubated for 48 hrs by SRB assay; type: functional
UACC-62 = assay: Antiproliferative activity against human UACC-62 cells assessed as growth inhibition incubated for 48 hrs by SRB assay; type: functional
T47D = assay: Antiproliferative activity against human T47D cells assessed as growth inhibition incubated for 48 hrs by SRB assay; type: functional
U-251 = assay: Antiproliferative activity against human U-251 cells assessed as growth inhibition incubated for 48 hrs by SRB assay; type: functional
Quadruplex DNA [7] = assay: Thermal stabilization of human c-Kit2 G4 quadruplex DNA assessed as change in melting temperature (deltaT1/2) incubated for 10 mins by circular dichroism spectroscopic analysis (reference value: 62.4 +/-0.1 degreeC); type: nucleic-acid assay
NCI-H322M = assay: Antiproliferative activity against human NCI-H322M cells assessed as growth inhibition incubated for 48 hrs by SRB assay; type: functional
SW-620 = assay: Antiproliferative activity against human SW620 cells assessed as growth inhibition incubated for 48 hrs by SRB assay; type: functional
Quadruplex DNA [8] = assay: Stabilization of human telomeric 26 hybrid G4 quadruplex DNA incubated for 10 mins by circular dichroism spectroscopic analysis; type: nucleic-acid assay
Quadruplex DNA [9] = assay: Thermal stabilization of human Tel26-hy G4 quadruplex DNA assessed as change in melting temperature (deltaT1/2) incubated for 10 mins by circular dichroism spectroscopic analysis (reference value: 55.4 +/- 0.1 degreeC); type: nucleic-acid assay
SK-MEL-5 = assay: Antiproliferative activity against human SK-MEL-5 cells assessed as growth inhibition incubated for 48 hrs by SRB assay; type: functional
MDA-MB-231 = assay: Antiproliferative activity against human MDA-MB-231 cells assessed as growth inhibition incubated for 48 hrs by SRB assay; type: functional
[10] = molecular target: DNA topoisomerase 1 (Homo sapiens) (UniProt P11387); assay: Inhibition of human Topoisomerase 1 assessed as relaxation of supercoiled plasmid pBR322 DNA at 2.5 uM incubated for 1 hr by ethidium bromide staining based agarose gel electrophoresis
Chain of DNA topoisomerase 1 (Homo sapiens) (P11387 whole entry): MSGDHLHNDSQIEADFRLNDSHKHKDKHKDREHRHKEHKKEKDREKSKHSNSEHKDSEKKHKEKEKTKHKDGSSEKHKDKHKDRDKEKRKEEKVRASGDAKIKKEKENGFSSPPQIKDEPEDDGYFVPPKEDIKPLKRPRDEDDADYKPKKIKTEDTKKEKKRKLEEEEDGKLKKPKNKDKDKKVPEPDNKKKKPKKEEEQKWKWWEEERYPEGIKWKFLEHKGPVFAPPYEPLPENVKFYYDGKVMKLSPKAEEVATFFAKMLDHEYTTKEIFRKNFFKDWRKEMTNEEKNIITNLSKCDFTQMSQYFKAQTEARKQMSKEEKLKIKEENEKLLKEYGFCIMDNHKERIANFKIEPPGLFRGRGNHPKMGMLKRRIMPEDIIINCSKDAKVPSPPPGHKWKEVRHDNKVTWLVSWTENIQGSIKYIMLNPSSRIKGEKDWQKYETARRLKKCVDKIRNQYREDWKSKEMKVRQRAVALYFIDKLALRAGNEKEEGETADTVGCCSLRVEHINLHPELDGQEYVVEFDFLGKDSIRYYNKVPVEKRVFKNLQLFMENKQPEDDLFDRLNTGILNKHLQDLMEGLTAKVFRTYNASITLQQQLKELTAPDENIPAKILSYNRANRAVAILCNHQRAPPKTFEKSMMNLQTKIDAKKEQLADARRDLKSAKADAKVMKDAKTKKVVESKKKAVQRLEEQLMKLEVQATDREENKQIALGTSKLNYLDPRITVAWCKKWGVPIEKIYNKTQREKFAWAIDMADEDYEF

UACC-257 = assay: Antiproliferative activity against human UACC-257 cells assessed as growth inhibition incubated for 48 hrs by SRB assay; type: functional
MDA-MB-468 = assay: Antiproliferative activity against human MDA-MB-468 cells assessed as growth inhibition incubated for 48 hrs by SRB assay; type: functional

Activity (Quadruplex DNA [2]): Active | inhibition (Homo sapiens): Active | ΔTm (Quadruplex DNA [3]): 9.6 °C | ΔTm (Quadruplex DNA [5]): > 20 °C | ΔTm (Quadruplex DNA [7]): > 20 °C | Activity (Quadruplex DNA [8]): Active | ΔTm (Quadruplex DNA [9]): 7.5 °C | inhibition [10]: Active
Compound: CCN(CC)CCn1c2ccc(O)cc2c2sc3cc(OC)ccc3c(=O)c21
Activity (HCT-116 [1]): Active | GI (K562): 1.24 µM | GI (KM12): 1.84 µM | GI (NCI-H226): 10.4 µM | GI (MDA-MB-435): 1.64 µM | GI (SK-MEL-28): 1.8 µM | GI (UO-31): 1.9 µM | GI (NCI/ADR-RES): 1.23 µM | GI (BT-549): 6.08 µM | GI (EKVX): 1.67 µM | GI (OVCAR-8): 2.1 µM | GI (NCI-H23): 1.56 µM | GI (CAKI-1): 3.73 µM | GI (786-0): 1.39 µM | GI (HCT-116 [4]): 1.07 µM | GI (PC-3): 1.82 µM | GI (IGROV-1): 1.59 µM | GI (RPMI-8226): 1.95 µM | GI (HCC 2998): 1.47 µM | GI (SK-OV-3): 13.4 µM | Activity (HCT-116 [6]): Active | GI (MCF7): 1.18 µM | GI (TK-10): 9.05 µM | GI (CCRF-CEM): 1.09 µM | GI (SF-539): 1.76 µM | GI (OVCAR-3): 2.19 µM | GI (SF-295): 5.35 µM | GI (A549): 1.63 µM | GI (UACC-62): 1.89 µM | GI (T47D): 14.2 µM | GI (U-251): 1.58 µM | GI (NCI-H322M): 6.89 µM | GI (SW-620): 0.675 µM | GI (SK-MEL-5): 1.74 µM | GI (MDA-MB-231): 1.61 µM | GI (UACC-257): 2.1 µM | GI (MDA-MB-468): 1.54 µM

Activity (Quadruplex DNA [2]): Active | inhibition (Homo sapiens): Active | ΔTm (Quadruplex DNA [3]): 11 °C | ΔTm (Quadruplex DNA [5]): > 20 °C | ΔTm (Quadruplex DNA [7]): > 20 °C | Activity (Quadruplex DNA [8]): Active | ΔTm (Quadruplex DNA [9]): 10.4 °C | inhibition [10]: Active
Compound: CCN(CC)CCn1c2ccc(OC)cc2c2sc3cc(OC)ccc3c(=O)c21
Activity (HCT-116 [1]): Active | GI (K562): 0.728 µM | GI (KM12): 2 µM | GI (NCI-H226): 2.46 µM | GI (MDA-MB-435): 1.73 µM | GI (SK-MEL-28): 1.7 µM | GI (UO-31): 1.35 µM | GI (NCI/ADR-RES): 1.24 µM | GI (BT-549): 2.24 µM | GI (EKVX): 1.6 µM | GI (OVCAR-8): 1.93 µM | GI (NCI-H23): 1.9 µM | GI (CAKI-1): 1.65 µM | GI (786-0): 1.59 µM | GI (HCT-116 [4]): 0.659 µM | GI (PC-3): 1.34 µM | GI (IGROV-1): 1.53 µM | GI (RPMI-8226): 1.47 µM | GI (HCC 2998): 1.48 µM | GI (SK-OV-3): 3.07 µM | Activity (HCT-116 [6]): Active | GI (MCF7): 1.16 µM | GI (TK-10): 2.33 µM | GI (CCRF-CEM): 1.04 µM | GI (SF-539): 1.66 µM | GI (OVCAR-3): 2.12 µM | GI (SF-295): 1.82 µM | GI (A549): 1.59 µM | GI (UACC-62): 1.8 µM | GI (T47D): 2 µM | GI (U-251): 1.55 µM | GI (NCI-H322M): 1.59 µM | GI (SW-620): 0.825 µM | GI (SK-MEL-5): 1.74 µM | GI (MDA-MB-231): 1.54 µM | GI (UACC-257): 1.92 µM | GI (MDA-MB-468): 1.56 µM
